Among the test systems are CAKI-1 renal; DLD-1 colon; HT29 colon; KM12 colon; LXFL 529 NSCLC; NCI-H522 lung; U251 CNS; HCT-116 colon; DU-145 prostate; PC-3 prostate.
Common to all, as to assay: growth of human tumour cells (NCI), 48 h

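The compound was tested at five concentrations on cells cultured in 96-well plates, with a 48-hour exposure period. The concentration for 50% growth inhibition is given as GI50. At the TGI there is no net growth.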 A value given as a limit tells only on which side of the number the result lay.

Our source for the TGI and GI50 values is PubChem BioAssay (NCI).

Regarding `C[C@]12CCc3nonc3C1CC[C@@H]1C2CC[C@@]2(C)C1CC[C@@H]2O` (stereo not given in full), the TGI in the assay on CAKI-1 renal, with DLD-1 colon, in the assay with HT29 colon, in the assay with KM12 colon, with LXFL 529 NSCLC and in the assay with NCI-H522 lung was more than 100000 nM each time. This molecule returned a TGI in the assay with U251 CNS of more than 100000 nM.

`COc1ccc(C[C@]23CCC(=O)N2CCc2cc(OC)c(O)cc23)cc1O`: the TGI in the assay on CAKI-1 renal, in the assay with HCT-116 colon, in the assay on HT29 colon, in the assay on KM12 colon and in the assay with LXFL 529 NSCLC was more than 100000 nM throughout.

On to `CCN(CC)CCn1c(=O)c2cc(OC)c(OC)cc2c2ccc3cc4c(cc3c21)OCO4`, for which the GI50 is 222 nM with CAKI-1 renal; 321 nM in the assay on DU-145 prostate; 377 nM in the assay on HCT-116 colon; 195 nM with HT29 colon; 734 nM with KM12 colon; 151 nM in the assay with NCI-H522 lung. The figures for the GI50 in the assay on PC-3 prostate and with U251 CNS were 799 nM and 201 nM, respectively. Also, the TGI is 15100 nM with CAKI-1 renal; 6930 nM with DU-145 prostate; 6200 nM in the assay with HCT-116 colon; 6160 nM with HT29 colon; 23900 nM in the assay on KM12 colon; 21000 nM in the assay on NCI-H522 lung. Moreover, the TGI came out at 99700 nM with PC-3 prostate and 18600 nM in the assay with U251 CNS.

For the molecule `CC[O-].CC[O-].O=C([CH-]C(=O)c1ccccc1)CCCCCCC(=O)[CH-]C(=O)c1ccccc1.[Ti+4]`, the GI50 in the assay with CAKI-1 renal, with DLD-1 colon, with HT29 colon, in the assay on KM12 colon, in the assay on LXFL 529 NSCLC and with U251 CNS was more than 100000 nM throughout. The TGI in the assay with CAKI-1 renal, in the assay on DLD-1 colon, in the assay on HT29 colon, in the assay with KM12 colon, in the assay with LXFL 529 NSCLC and with U251 CNS was more than 100000 nM each time.

Consider `CCOC(=O)c1c2c(n3ccc(NC(=O)CCN4CCCCC4)cc13)C(=O)c1ncccc1C2=O`, for which the GI50 was 27.9 nM in the assay with CAKI-1 renal; 1200 nM with DU-145 prostate; 106 nM with HCT-116 colon; 1300 nM with HT29 colon; 1220 nM in the assay with KM12 colon; 15.8 nM in the assay with NCI-H522 lung. Besides, the GI50 in the assay on PC-3 prostate is 1200 nM; in the assay with U251 CNS it was 1090 nM. The TGI was 4180 nM in the assay with CAKI-1 renal; 2540 nM in the assay with DU-145 prostate; 2210 nM with HCT-116 colon; 3100 nM with HT29 colon; 2760 nM in the assay with KM12 colon; 1720 nM in the assay with NCI-H522 lung. Also, the TGI in the assay with PC-3 prostate came to 2630 nM; with U251 CNS it was 2470 nM.

In the case of `COc1cc2c(cc1O)c(=O)n(CCN(C)C)c1c3cc4c(cc3ncc21)OCO4`, the GI50 in the assay with CAKI-1 renal is less than 10 nM; in the assay with DU-145 prostate, less than 10 nM; with HCT-116 colon it was 11.7 nM; in the assay on HT29 colon, 729 nM; with KM12 colon, 177 nM; in the assay with NCI-H522 lung it was less than 10.4 nM. Besides, the figures for the GI50 in the assay on PC-3 prostate and with U251 CNS were 243 nM and less than 10 nM, respectively. In addition, the TGI in the assay with CAKI-1 renal worked out at 1240 nM; with DU-145 prostate it was 1940 nM; in the assay with HCT-116 colon, 1250 nM; in the assay with HT29 colon it was 7860 nM; in the assay on NCI-H522 lung, 154 nM; in the assay on PC-3 prostate, 2510 nM. In the assay on U251 CNS, this molecule displayed a TGI of 42.6 nM.

Consider `COc1cc(NS(C)(=O)=O)ccc1Cc1c2ccccc2nc2ccccc12`, for which the GI50 in the assay with CAKI-1 renal was 139 nM; in the assay with DU-145 prostate, 57.1 nM; in the assay on HCT-116 colon it was 135 nM; in the assay on HT29 colon, 300 nM; in the assay with KM12 colon, 396 nM; in the assay with NCI-H522 lung, 71.2 nM. Moreover, the GI50 in the assay with PC-3 prostate was 461 nM; with U251 CNS, 136 nM. Also, the TGI with CAKI-1 renal came out at 1530 nM; in the assay on DU-145 prostate, 649 nM; in the assay with HCT-116 colon it was 1930 nM; with HT29 colon, 1820 nM; in the assay with KM12 colon, 2010 nM; with NCI-H522 lung, 961 nM. The TGI in the assay with PC-3 prostate was 15600 nM; in the assay with U251 CNS, 1210 nM.

As for `NNc1nc2ccccc2o1`, the TGI in the assay on CAKI-1 renal, in the assay with DU-145 prostate, with HCT-116 colon, in the assay on HT29 colon, in the assay with KM12 colon and in the assay on NCI-H522 lung was more than 100000 nM in each case. In addition, the TGI with PC-3 prostate and with U251 CNS was more than 100000 nM each time.

Take `CCN(CC)CCCNc1n[n+]([O-])c2ccccc2[n+]1[O-]`: the TGI in the assay with CAKI-1 renal was more than 100000 nM; in the assay on DU-145 prostate, 66900 nM; in the assay on HCT-116 colon, 57300 nM; in the assay with HT29 colon, 85300 nM; in the assay with KM12 colon, 63000 nM; with NCI-H522 lung, 26500 nM. The TGI in the assay with PC-3 prostate and in the assay with U251 CNS was more than 100000 nM each time.

On to `O=C(CCCC(=O)N/N=C/c1cc(Cl)ccc1O)N/N=C\c1cc(Cl)ccc1O`, for which the GI50 in the assay with CAKI-1 renal is 1980 nM; with DU-145 prostate it was 6750 nM; in the assay on HCT-116 colon it was 3750 nM; in the assay on HT29 colon, 21200 nM; with KM12 colon it was 3980 nM; with NCI-H522 lung, 3620 nM. For the same molecule, the GI50 was 2680 nM with PC-3 prostate and 2310 nM in the assay with U251 CNS. Further, the TGI in the assay with CAKI-1 renal, in the assay on DU-145 prostate, in the assay on HCT-116 colon, in the assay on HT29 colon, with KM12 colon and with NCI-H522 lung was more than 100000 nM each time. The TGI with PC-3 prostate and in the assay with U251 CNS was more than 100000 nM each time.

`CC(C)=Cc1cccc2[nH]c(O)c(N=Nc3ccc(S(N)(=O)=O)cc3)c12`: the GI50 in the assay with CAKI-1 renal is 1690 nM; in the assay on DU-145 prostate, 5090 nM; in the assay with HCT-116 colon it was 1740 nM; in the assay on HT29 colon, 3360 nM; in the assay with KM12 colon, 100 nM; in the assay on NCI-H522 lung it was more than 25000 nM. For the same molecule, the figures for the GI50 in the assay on PC-3 prostate and with U251 CNS were 6200 nM and 4240 nM, respectively. Also, the TGI with CAKI-1 renal was more than 25000 nM; in the assay on DU-145 prostate, more than 25000 nM; with HCT-116 colon it was more than 14300 nM; in the assay with HT29 colon, more than 25000 nM; with KM12 colon it was more than 18600 nM; in the assay on NCI-H522 lung, more than 25000 nM. Also, the TGI in the assay on PC-3 prostate and with U251 CNS was more than 25000 nM in each case.
